Measured values as given in US20080293712A1, “Benzo[C][2,7]Naphtyridine Derivatives, Methods of Making Thereof and Methods of Use Thereof” (WYETH, priority 2007, published 2008).
Read-outs that look alike come from different tables or passages of the source.

Target: T1, PDK-1 (Homo sapiens, UniProt O15530)
T1 sequence (O15530 1-556): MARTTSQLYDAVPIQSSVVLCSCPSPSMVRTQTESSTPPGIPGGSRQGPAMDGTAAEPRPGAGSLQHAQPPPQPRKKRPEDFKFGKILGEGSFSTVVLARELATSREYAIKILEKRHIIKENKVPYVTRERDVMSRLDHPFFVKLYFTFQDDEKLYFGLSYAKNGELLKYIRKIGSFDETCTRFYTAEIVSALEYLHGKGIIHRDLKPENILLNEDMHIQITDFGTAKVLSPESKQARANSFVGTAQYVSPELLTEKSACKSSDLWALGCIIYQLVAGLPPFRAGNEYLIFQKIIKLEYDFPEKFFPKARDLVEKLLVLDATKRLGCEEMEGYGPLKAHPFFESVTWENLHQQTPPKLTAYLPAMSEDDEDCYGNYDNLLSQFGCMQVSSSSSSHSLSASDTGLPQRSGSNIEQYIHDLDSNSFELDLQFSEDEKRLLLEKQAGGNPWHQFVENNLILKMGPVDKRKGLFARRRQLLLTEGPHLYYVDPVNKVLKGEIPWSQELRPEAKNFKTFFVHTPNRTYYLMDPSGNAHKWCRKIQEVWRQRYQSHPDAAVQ
Assay: PDK-1 kinase inhibition ELISA assay (phosphorylation of His6-tagged SGK1 S422D by PDK-1)
Format: biochemical

[1] = PDK-1 ELISA, Table 11, read-out: Average IC50

IC50 [1] | IC50 | Structure (SMILES)
92 nM | – | COc1cc2ncc3c(N)nc(-c4cncc(OC[C@@H](N)Cn5ccc(=N)cc5)c4)cc3c2cc1OC [Ib-82, 2-(5-{[(2S)-2-amino-3-(4-iminopyridin-1(4H)-yl)propyl]oxy}pyridin-3-yl)-8,9-dimethoxybenzo[c][2,7]naphthyridin-4-amine]
142 nM | – | COc1cc2ncc3c(N)nc(-c4cncc(Nc5ccc(CO)cc5)c4)cc3c2cc1OC [Ib-194, (4-{[5-(4-amino-8,9-dimethoxybenzo[c][2,7]naphthyridin-2-yl)pyridin-3-yl]amino}phenyl)methanol]
53 nM | – | COc1cc2ncc3c(N)nc(-c4cncc(C#CCN)c4)cc3c2cc1OC [Ib-252, 2-[5-(3-aminoprop-1-yn-1-yl)pyridin-3-yl]-8,9-dimethoxybenzo[c][2,7]naphthyridin-4-amine]
42 nM | – | COc1cc2ncc3c(N)nc(-c4cncc(OC[C@@H](N)CN5CCN(c6ccncc6)CC5)c4)cc3c2cc1OC [Ib-107, 2-(5-{[(2S)-2-amino-3-(4-pyridin-4-ylpiperazin-1-yl)propyl]oxy}pyridin-3-yl)-8,9-dimethoxybenzo[c][2,7]naphthyridin-4-amine]
39 nM | – | COc1cc2ncc3c(N)nc(-c4cncc(Nc5cccc(C(N)=O)c5)c4)cc3c2cc1OC [Ib-188, 3-{[5-(4-amino-8,9-dimethoxybenzo[c][2,7]naphthyridin-2-yl)pyridin-3-yl]amino}benzamide]
– | 383 nM | COc1ccc(Nc2cncc(-c3cc4c(cnc5cc(OC)c(OC)cc54)c(N)n3)c2)cc1 [Ib-177, 8,9-dimethoxy-2-{5-[(4-methoxyphenyl)amino]pyridin-3-yl}benzo[c][2,7]naphthyridin-4-amine]
20 nM | – | COc1cc2ncc3c(N)nc(-c4cncc(OC[C@@H](N)Cn5ccnc5)c4)cc3c2cc1OC [Ib-9, 2-(5-{[(2S)-2-amino-3-(1H-imidazol-1-yl)propyl]oxy}pyridin-3-yl)-8,9-dimethoxybenzo[c]-2,7-naphthyridin-4-amine]
527 nM | – | Nc1nc(-n2ccnc2)cc2c1cnc1cc(Br)ccc12 [Ia-37, 8-Bromo-2-(1H-imidazol-1-yl)benzo[c]-2,7-naphthyridin-4-amine]
– | 739 nM | COCCOc1cc2ncc3c(N)nc(N(C)C)cc3c2cc1OC [Ia-60, 9-Methoxy-8-(2-methoxyethoxy)-N^2,N^2-dimethylbenzo[c]-2,7-naphthyridine-2,4-diamine]
4120 nM | – | COc1cc2ncc3c(N)nc(N4CC[C@H](O)C4)cc3c2cc1OC [Ib-68, (3S)-1-(4-amino-8,9-dimethoxybenzo[c]-2,7-naphthyridin-2-yl)pyrrolidin-3-ol]
151 nM | – | COc1cc2ncc3c(N)nc(-c4cncc(Oc5ccc(N)nc5)c4)cc3c2cc1OC [Ib-172, 2-{5-[(6-Aminopyridin-3-yl)oxy]pyridin-3-yl}-8,9-dimethoxybenzo[c][2,7]naphthyridin-4-amine]
5 nM | – | COc1cc2ncc3c(N)nc(-c4cncc(OC[C@@H](N)CNc5ccc(F)c(Cl)c5)c4)cc3c2cc1OC [Ib-84, (2S)-3-{[5-(4-amino-8,9-dimethoxybenzo[c][2,7]naphthyridin-2-yl)pyridin-3-yl]oxy}-N1-(3-chloro-4-fluorophenyl)propane-1,2-diamine]
283 nM | – | COc1cc2ncc3c(N)nc(-c4cncc(Nc5ccccc5)c4)cc3c2cc1OC [Ib-203, 2-(5-anilinopyridin-3-yl)-8,9-dimethoxybenzo[c][2,7]naphthyridin-4-amine]
998 nM | – | COc1cc2ncc3c(N)nc(-c4ccc(F)c(F)c4)cc3c2cc1OC [Ib-240, 2-(3,4-difluorophenyl)-8,9-dimethoxybenzo[c][2,7]naphthyridin-4-amine]
> 20000 nM | – | CCOc1cc2ncc3c(N)nc(-c4ccc(Br)cc4)cc3c2cc1OCC [Ia-47, 2-(4-bromophenyl)-8,9-diethoxybenzo[c]-2,7-naphthyridin-4-amine]
2620 nM | – | COCCOc1cc2ncc3c(N)nc(Cl)cc3c2cc1OC [Ia-61, 2-Chloro-9-methoxy-8-(2-methoxyethoxy)benzo[c]-2,7-naphthyridin-4-amine]
> 20000 nM | – | CCN1CCCC1CNc1cc2c(cnc3cc(OCCOC)c(OC)cc32)c(NCC2CCCN2CC)n1 (centres unmarked) [Compound I-4, N,N′-bis[(1-ethylpyrrolidin-2-yl)methyl]-9-methoxy-8-(2-methoxyethoxy)benzo[c]-2,7-naphthyridine-2,4-diamine]
46.5 nM | – | CCNCCOc1cncc(-c2cc3c(cnc4cc(OC)c(OC)cc43)c(N)n2)c1 [Ib-73, 2-(5-(2-(ethylamino)ethoxy)pyridin-3-yl)-8,9-dimethoxybenzo[c][2,7]naphthyridin-4-amine]

IC50 [1] | IC50 | Structure (SMILES)
2 nM | – | CC[C@@H](N)COc1cncc(-c2cc3c(cnc4cc(OC)c(OC)cc43)c(N)n2)c1 [Ib-18, 2-(5-{[(2R)-2-aminobutyl]oxy}pyridin-3-yl)-8,9-dimethoxybenzo[c]-2,7-naphthyridin-4-amine]
115 nM | – | COc1cc2ncc3c(N)nc(-c4cncc(Oc5ccncc5N)c4)cc3c2cc1OC [Ib-170, 2-{5-[(3-Aminopyridin-4-yl)oxy]pyridin-3-yl}-8,9-dimethoxybenzo[c][2,7]naphthyridin-4-amine]
> 100 nM | – | COc1cc2ncc3c(NO)nc(-c4cncc(OC[C@@H](N)Cc5cccc(Cl)c5)c4)cc3c2cc1OC [Compound I-2, 2-(5-{[(2S)-2-amino-3-(3-chlorophenyl)propyl]oxy}pyridin-3-yl)-N-hydroxy-8,9-dimethoxybenzo[c]-2,7-naphthyridin-4-amine]
2260 nM | – | COCCOc1cc2ncc3c(N)nc(N(C)CCOC)cc3c2cc1OC [Ia-54, 9-methoxy-8-(2-methoxyethoxy)-N^2-(2-methoxyethyl)-N^2-methylbenzo[c]-2,7-naphthyridine-2,4-diamine]
5 nM | – | COc1cc2ncc3c(N)nc(-c4cncc(OC[C@@H](N)CNc5ccc(F)cc5F)c4)cc3c2cc1OC [Ib-85, (2S)-3-{[5-(4-amino-8,9-dimethoxybenzo[c][2,7]naphthyridin-2-yl)pyridin-3-yl]oxy}-N1-(2,4-difluorophenyl)propane-1,2-diamine]
1150 nM | – | COc1cc2c(cc1OCCN1CCN(C)CC1)ncc1c(N)nc(-n3ccnc3)cc12 [Ia-10, 2-(1H-imidazol-1-yl)-9-methoxy-8-(2-(4-methylpiperazin-1-yl)ethoxy)benzo[c][2,7]naphthyridin-4-amine]
– | 434 nM | COc1cccc(Nc2cncc(-c3cc4c(cnc5cc(OC)c(OC)cc54)c(N)n3)c2)c1 [Ib-176, 8,9-dimethoxy-2-{5-[(3-methoxyphenyl)amino]pyridin-3-yl}benzo[c][2,7]naphthyridin-4-amine]
81 nM | – | COc1cc2ncc3c(N)nc(-c4cncc(Nc5ccc(CN)cc5)c4)cc3c2cc1OC [Ib-192, 2-(5-{[4-(aminomethyl)phenyl]amino}pyridin-3-yl)-8,9-dimethoxybenzo[c][2,7]naphthyridin-4-amine]
24 nM | – | COc1cc2ncc3c(N)nc(-c4cncc(OC[C@@H](N)CNCCc5ccncc5)c4)cc3c2cc1OC [Ib-97, (2S)-3-{[5-(4-amino-8,9-dimethoxybenzo[c][2,7]naphthyridin-2-yl)pyridin-3-yl]oxy}-N1-(2-pyridin-4-ylethyl)propane-1,2-diamine]
81 nM | – | CCN(CC)CCNC(=O)c1ccc(Nc2cncc(-c3cc4c(cnc5cc(OC)c(OC)cc54)c(N)n3)c2)cc1 [Ib-191, 4-{[5-(4-amino-8,9-dimethoxybenzo[c][2,7]naphthyridin-2-yl)pyridin-3-yl]amino}-N-[2-(diethylamino)ethyl]benzamide]
2060 nM | – | COCCOc1cc2ncc3c(N)nc(N4CCC(O)CC4)cc3c2cc1OC [Ia-53, 1-[4-amino-9-methoxy-8-(2-methoxyethoxy)benzo[c]-2,7-naphthyridin-2-yl]piperidin-4-ol]
32 nM | – | COc1cc2ncc3c(N)nc(-c4cncc(OC[C@@H](N)CNCC5(c6ccccc6)CC5)c4)cc3c2cc1OC [Ib-106, (2S)-3-{[5-(4-amino-8,9-dimethoxybenzo[c][2,7]naphthyridin-2-yl)pyridin-3-yl]oxy}-N1-[(1-phenylcyclopropyl)methyl]propane-1,2-diamine]
8830 nM | – | COCCOc1cc2ncc3c(NCc4cccnc4)nc(NCc4cccnc4)cc3c2cc1OC [Compound I-3, 9-methoxy-8-(2-methoxyethoxy)-N,N′-bis(pyridin-3-ylmethyl)benzo[c]-2,7-naphthyridine-2,4-diamine]
1000 nM | – | COc1cc2ncc3c(N)nc(-c4cccc(C(=O)N5CCN(c6ccccn6)CC5)c4)cc3c2cc1OC [Ib-247, 8,9-dimethoxy-2-{3-[(4-pyridin-2-ylpiperazin-1-yl)carbonyl]phenyl}benzo[c][2,7]naphthyridin-4-amine]
91 nM | – | COc1cc2ncc3c(N)nc(-c4cncc(Nc5ccc(CCO)cc5)c4)cc3c2cc1OC [Ib-198, 2-(4-{[5-(4-amino-8,9-dimethoxybenzo[c][2,7]naphthyridin-2-yl)pyridin-3-yl]amino}phenyl)ethanol]
81 nM | – | COc1cc2ncc3c(N)nc(-c4cncc(OC[C@@H](N)Cc5ccc(N)cc5)c4)cc3c2cc1OC [Ib-19, 2-(5-{[(2S)-2-amino-3-(4-aminophenyl)propyl]oxy}pyridin-3-yl)-8,9-dimethoxybenzo[c]-2,7-naphthyridin-4-amine]
1000 nM | – | COc1cc2ncc3c(N)nc(-c4cncc(Nc5ccccc5OCc5ccccc5)c4)cc3c2cc1OC [Ib-202, 2-(5-{[2-(benzyloxy)phenyl]amino}pyridin-3-yl)-8,9-dimethoxybenzo[c][2,7]naphthyridin-4-amine]
